System: soyabean crop
Test: Evaluation of % damage in soyabean crop using safener (prothioconazole phytotoxicity reduction)
Description: A 480 SC (suspension concentrate) formulation of prothioconazole was used. The application amount of prothioconazole was high in an amount of 350 g ai/ha.
A 480 SC (suspension concentrate) formulation of prothioconazole was used. The application amount of prothioconazole was lower in an amount of 175 g ai/ha.

mancozeb
% Damage (prothioconazole 175 g ai/ha (480 SC) + safener 560 g ai/ha, ratio 1:3.2): 15.0%
% Damage (prothioconazole 175 g ai/ha (480 SC) + safener 1120 g ai/ha, ratio 1:6.4): 18.0%
% Damage (prothioconazole 175 g ai/ha (480 SC) + safener 1680 g ai/ha, ratio 1:9.6): 11.7%
% Damage (prothioconazole 350 g ai/ha (480 SC) + safener 560 g ai/ha, ratio 1:1.6): 32.5%
% Damage (prothioconazole 350 g ai/ha (480 SC) + safener 1120 g ai/ha, ratio 1:3.2): 21.7%
% Damage (prothioconazole 350 g ai/ha (480 SC) + safener 1680 g ai/ha, ratio 1:4.8): 19.2%
